Key:
[1] = Maximal tolerated dose, single dose IV in mice; assay type: in vivo
Experimental: IRC mice were injected once IV with Astarabine® in a dose ranging from 1000 to 8000 mg/kg. The mice were evaluated for 14 days. […] The following parameters: clinical signs, body weight, food consumption and blood analysis, were normal for both male and female mice at this dose, i.e., 8000 mg/kg. […] It is therefore concluded that 8000 mg/kg is the MTD of Astarabine® in mice for a single IV administration.

[2] = system: K562 (Human chronic myelogenous leukemia); test: MTT assay, IC50 in tumor cell lines; assay type: cell-based; conditions: K562, 72 hr
Experimental: (§1) The effect of Astarabine® on different cell lines was evaluated. Briefly, various cell lines were obtained from ATCC or ECACC. Hematological cells were grown in RPMI medium containing 10-20% FBS and 1% glutamine. Solid tumor cells were grown in DMEM medium containing 10-20% FBS and 1% glutamine. Cells were seeded into 96-well plates, 50,000 cells/ml, 0.2 ml per well. Test substances were diluted in saline or PBS and added in final concentrations of 0.1 nM to 10 μM, in a volume of 20 μl. The study was conducted in triplicates, PBS was used as control. Plates were incubated for 72 hr at 37° C., 5% CO2. At the end of the exposure period, a MTT assay using the MTT reagent [3-(4,5-dimethylthiazol-2-yl)-2,5-diphenyltetrazolium bromide] was performed. MTT was added to each well at a concentration of 5 mg/ml in a volume of 0.02 ml. Plates were incubated at 37° C. for 3 h. The plates were centrifuged at 3500 rpm for 5 minutes and the supernatant was aspired. The pellets which contained MTT crystals were each dissolved in 0.2 ml DMSO. Absorbance was determined using ELISA reader at a wavelength of 570 nm.

[3] = system: CCRF-SB (Human acute lymphoblastic leukemia); test: MTT assay, IC50 in tumor cell lines; assay type: cell-based; conditions: 72 hr
Experimental: as §1

[4] = system: A2780 (Human ovarian carcinoma); test: MTT assay, IC50 in tumor cell lines; assay type: cell-based; conditions: A2780, 72 hr
Experimental: as §1

[5] = system: P388.D1 (Mouse lymphoid macrophage); test: MTT assay, IC50 in tumor cell lines; assay type: cell-based; conditions: P388D1, P388.D1, 72 hr
Experimental: as §1

[6] = system: NCIH727 (Human lung non small cell carcinoma); test: MTT assay, IC50 in tumor cell lines; assay type: cell-based; conditions: NCI-H727, NCIH727, 72 hr
Experimental: as §1

[7] = system: THP-1 (Human monocytic leukemia); test: MTT assay, IC50 in tumor cell lines; assay type: cell-based; conditions: THP-1, 72 hr
Experimental: as §1

[8] = system: RS 4:11 (Human acute lymphoblastic leukemia); test: MTT assay, IC50 in tumor cell lines; assay type: cell-based; conditions: RS4-11, RS 4:11, 72 hr
Experimental: as §1

[9] = system: SU DHL-5 (Human B-cell non Hodgkin's lymphoma); test: MTT assay, IC50 in tumor cell lines; assay type: cell-based; conditions: SU DHL-5, 72 hr
Experimental: as §1

[10] = system: Molt-4 (Human acute lymphoblastic leukemia); test: MTT assay, IC50 in tumor cell lines; assay type: cell-based; conditions: Molt-4, 72 hr
Experimental: as §1

[11] = system: MEG 01 (Human chronic myelogenous leukemia); test: MTT assay, IC50 in tumor cell lines; assay type: cell-based; conditions: MEG 01, 72 hr
Experimental: as §1

[12] = system: CCRF-CEM (Human acute lymphoblastic leukemia T lympoblastoid line); test: MTT assay, IC50 in tumor cell lines; assay type: cell-based; conditions: 72 hr
Experimental: as §1

[13] = system: HepG2 (Human hepatocellular carcinoma); test: MTT assay, IC50 in tumor cell lines; assay type: cell-based; conditions: HepG2, 72 hr
Experimental: as §1

[14] = system: SU DHL-1 (Human large cell lymphoma); test: MTT assay, IC50 in tumor cell lines; assay type: cell-based; conditions: SU DHL-1, 72 hr
Experimental: as §1

[15] = system: HL-60 (Human promyelocytic leukemia); test: MTT assay, IC50 in tumor cell lines; assay type: cell-based; conditions: HL-60, 72 hr
Experimental: as §1

[16] = system: Kasumi-1 (Human acute myeloblastic leukemia); test: MTT assay, IC50 in tumor cell lines; assay type: cell-based; conditions: Kasumi-1, 72 hr
Experimental: as §1

[17] = system: L1210 (Mouse DBA/2 lymphocytic leukemia); test: MTT assay, IC50 in tumor cell lines; assay type: cell-based; conditions: L1210, 72 hr
Experimental: as §1

[18] = ICR, mouse, in vivo
Experimental: In vivo tolerability/toxicology studies were used to determine the MTD of a single dose of Astarabine® in mice (FIG. 1A) or of 14 daily repeated doses of Astarabine® in mice (FIG. 1B). The MTD was evaluated for intravenous (IV) or intraperitoneal (IP) administration.

[19] = Maximal tolerated dose, single dose IP in mice; assay type: in vivo
Experimental: Ten weeks of age IRC mice were injected IP with a single dose of Astarabine®, ranging from 1428 to 8271 mg/kg (50 to 300 mg/mice, respectively). Clinical evaluation included mobility observations, food and water consumption. […] After 7 days, the mice were sampled for hematology and biochemistry and then subjected to necropsy.

N[C@@H](CC(=O)Nc1ccn([C@@H]2O[C@H](CO)[C@@H](O)[C@@H]2O)c(=O)n1)C(=O)O [Astarabine®]
MTD at 14 days ([1]; both sexes, IRC, mouse, in vivo, single IV administration, evaluated for 14 days): 8000 mg/kg
Drug dependent death ([1]; single IV dose 8000 mg/kg): no drug dependent death
IC50 [2]: 194 to 516 nM
IC50 [3]: 11000 to 21400 nM
IC50 [4]: 457 nM
IC50 [5]: 1900 to 2600 nM
IC50 [6]: 1300 to 2800 nM
IC50 [7]: 7100 to 52000 nM
IC50 [8]: 27.1 nM
IC50 [9]: 196 nM
IC50 [10]: 4 to 24 nM
IC50 [11]: 1700 nM
IC50 [12]: 23.3 to 40.8 nM
IC50 [13]: 7000 to 7500 nM
IC50 [14]: 314 to 335 nM
IC50 [15]: 256 to 276 nM
IC50 [16]: 7600 nM
IC50 [17]: 39.4 to 116 nM
Reduction of toxicity in animals compared to the reported toxicity of cytarabine [18]: 10-20 fold
MTD at 7 days ([19]; IRC, mouse, in vivo, single dose IP): 8270 mg/kg
Blood samples (hematology and biochemistry) ([19]; single IP dose 8271 mg/kg, after 7 days of recovery): normal results
Necropsy, tissues ([19]; single IP dose 1428 to 8271 mg/kg, all mice): normal, with no macroscopic findings

From US12064445B2, “Cytarabine conjugates for cancer therapy” (Biosight Ltd., priority 2015, dated 2024)
